Laboratory results: the pKa sets of Baltruschat and Czodrowski (2020)

Columns and labels:
[1] = not given; remark: listed apart in the source

SMILES | pKa | pKa [1]
CCCC(=O)OC(CC(=O)O)C[N+](C)(C)C (stereo unspecified) | 3.56 | 
Cc1cccc(Nc2ccccc2C(=O)O)c1C |  | 4.5
COc1ccc2c3c1O[C@H]1[C@@H](O)C=CC4[C@@H](C2)NCC[C@@]341 (stereo partly specified) | 9.23 | 
O=C(O)c1cccnc1 | 2.05 | 
CCn1nc(C(=O)O)c(=O)c2cc3c(cc21)OCO3 |  | 4.7
Cc1ccc(C(=O)c2ccc(CC(=O)O)n2C)cc1 |  | 3.5
CCCCCCCC(=O)OC(CC(=O)O)C[N+](C)(C)C (stereo unspecified) | 3.6 | 
CN(C)[C@@H]1C(O)=C(C(N)=O)C(=O)[C@@]2(O)C(O)=C3C(=O)c4c(O)cccc4[C@@](C)(O)C3[C@H](O)C12 (stereo partly specified) | 7.32 | 
CCCCCCCCCC(=O)OC(CC(=O)O)C[N+](C)(C)C (stereo unspecified) | 3.65 | 
Nc1ccc(C(=O)O)cc1 | 4.87 | 
O=C(c1ccccc1)c1ccc2n1CCC2C(=O)O (stereo unspecified) |  | 3.5
